Test results as given in ChEMBL document CHEMBL4339185 (Eur J Med Chem, 2019).
Values after ≈ are worked out from the molar mass of the structure shown.

What was measured:
Enterococcus faecalis = assay: Antimicrobial activity against Enterococcus faecalis ATCC 29212 incubated for 18 hrs by serial microdilution method; format: functional; settings: ATCC 29212, 18 h
[1] = tested on: Staphylococcus epidermidis; assay: Antimicrobial activity against Staphylococcus epidermidis ATCC 12228 incubated for 18 hrs by serial microdilution method; format: functional; settings: ATCC 12228, 18 h
[2] = Lipophilicity, log P of the compound in octanol and water incubated for 1 h under shaking condition; format: physicochemical
[3] = Solubility of the compound in water at pH 7 by UV-vis spectrophotometric analysis; format: physicochemical
Escherichia coli = assay: Antimicrobial activity against Escherichia coli ATCC 25922 incubated for 18 hrs by serial microdilution method; format: functional; settings: ATCC 25922, 18 h
Staphylococcus aureus [4] = assay: Antimicrobial activity against MLSB-resistant Staphylococcus aureus incubated for 18 hrs by serial microdilution method; format: functional
Staphylococcus aureus [5] = assay: Antimicrobial activity against methicillin-resistant Staphylococcus aureus incubated for 18 hrs by serial microdilution method; format: functional
Staphylococcus aureus [6] = assay: Antimicrobial activity against Staphylococcus aureus ATCC 6538 incubated for 18 hrs by serial microdilution method; format: functional; settings: ATCC 6538, 18 h
[7] = tested on: Staphylococcus epidermidis; assay: Antimicrobial activity against Staphylococcus epidermidis ATCC 49134 incubated for 18 hrs by serial microdilution method; format: functional; settings: ATCC 49134, 18 h

| Structure (SMILES) | MIC (Enterococcus faecalis) | MIC [1] | logP at 1 h [2] | solubility [3] | MIC (Escherichia coli) | MIC (Staphylococcus aureus [4]) | MIC (Staphylococcus aureus [5]) | MIC (Staphylococcus aureus [6]) | MIC [7] |
| --- | --- | --- | --- | --- | --- | --- | --- | --- | --- |
| CO[C@H]1/C=C/O[C@@]2(C)Oc3c(C)c(O)c4c(O)c(c(CN5CCN(c6ncccn6)CC5)c(O)c4c3C2=O)NC(=O)/C(C)=C\C=C\[C@H](C)[C@H](O)[C@@H](C)[C@@H](O)[C@@H](C)[C@H](OC(C)=O)[C@@H]1C | > 8 µg/mL | 0.25 µg/mL (≈ 0.286 µM) | 2.02 | 50 µg/mL (≈ 57.2 µM) | > 8 µg/mL | 2 µg/mL (≈ 2.29 µM) | 1 µg/mL (≈ 1.14 µM) | 1 µg/mL (≈ 1.14 µM) | 0.25 µg/mL (≈ 0.286 µM) |
| CO[C@H]1/C=C/O[C@@]2(C)Oc3c(C)c(O)c4c(O)c(c(CNCCN5CCCC5=O)c(O)c4c3C2=O)NC(=O)/C(C)=C\C=C\[C@H](C)[C@H](O)[C@@H](C)[C@@H](O)[C@@H](C)[C@H](OC(C)=O)[C@@H]1C | > 8 µg/mL | 2 µg/mL (≈ 2.39 µM) | 1.24 | 100 µg/mL (≈ 119 µM) | > 8 µg/mL | 4 µg/mL (≈ 4.77 µM) | 2 µg/mL (≈ 2.39 µM) | 2 µg/mL (≈ 2.39 µM) | 1 µg/mL (≈ 1.19 µM) |
| CO[C@H]1/C=C/O[C@@]2(C)Oc3c(C)c(O)c4c(O)c(c(CN5CCN(C(c6ccc(F)cc6)c6ccc(F)cc6)CC5)c(O)c4c3C2=O)NC(=O)/C(C)=C\C=C\[C@H](C)[C@H](O)[C@@H](C)[C@@H](O)[C@@H](C)[C@H](OC(C)=O)[C@@H]1C | > 8 µg/mL | 4 µg/mL (≈ 4.01 µM) | 2.34 | < 50 µg/mL | > 8 µg/mL | 8 µg/mL (≈ 8.01 µM) | 4 µg/mL (≈ 4.01 µM) | 4 µg/mL (≈ 4.01 µM) | 2 µg/mL (≈ 2 µM) |
| CO[C@H]1/C=C/O[C@@]2(C)Oc3c(C)c(O)c4c(O)c(c5c(nc6cc(C)ccn65)c4c3C2=O)NC(=O)/C(C)=C\C=C\[C@H](C)[C@H](O)[C@@H](C)[C@@H](O)[C@@H](C)[C@H](OC(C)=O)[C@@H]1C [RIFAXIMIN] | 8 µg/mL (≈ 10.2 µM) | 0.0312 µg/mL (≈ 0.0398 µM) | – | – | > 8 µg/mL | 0.125 µg/mL (≈ 0.159 µM) | 0.0625 µg/mL (≈ 0.0795 µM) | 0.0625 µg/mL (≈ 0.0795 µM) | 0.0312 µg/mL (≈ 0.0398 µM) |
| CO[C@H]1/C=C/O[C@@]2(C)Oc3c(C)c(O)c4c(O)c(c(/C=N/Nc5ccnc6cc(Cl)ccc56)c(O)c4c3C2=O)NC(=O)/C(C)=C\C=C\[C@H](C)[C@H](O)[C@@H](C)[C@@H](O)[C@@H](C)[C@H](OC(C)=O)[C@@H]1C | 8 µg/mL (≈ 8.87 µM) | 0.125 µg/mL (≈ 0.139 µM) | 2.1 | < 300 µg/mL | > 8 µg/mL | 0.125 µg/mL (≈ 0.139 µM) | 0.25 µg/mL (≈ 0.277 µM) | 0.25 µg/mL (≈ 0.277 µM) | 0.125 µg/mL (≈ 0.139 µM) |
| CO[C@H]1/C=C/O[C@@]2(C)Oc3c(C)c(O)c4c(O)c(c(/C=N/NC(C)(C)C)c(O)c4c3C2=O)NC(=O)/C(C)=C\C=C\[C@H](C)[C@H](O)[C@@H](C)[C@@H](O)[C@@H](C)[C@H](OC(C)=O)[C@@H]1C | 8 µg/mL (≈ 10.1 µM) | 1 µg/mL (≈ 1.26 µM) | 2.43 | < 50 µg/mL | > 8 µg/mL | 2 µg/mL (≈ 2.51 µM) | 1 µg/mL (≈ 1.26 µM) | 1 µg/mL (≈ 1.26 µM) | 0.5 µg/mL (≈ 0.628 µM) |
| CO[C@H]1/C=C/O[C@@]2(C)Oc3c(C)c(O)c4c(O)c(c(/C=N/NC5CCCCC5)c(O)c4c3C2=O)NC(=O)/C(C)=C\C=C\[C@H](C)[C@H](O)[C@@H](C)[C@@H](O)[C@@H](C)[C@H](OC(C)=O)[C@@H]1C | 1 µg/mL (≈ 1.22 µM) | 0.25 µg/mL (≈ 0.304 µM) | 2.1 | < 50 µg/mL | > 8 µg/mL | 0.5 µg/mL (≈ 0.608 µM) | 0.5 µg/mL (≈ 0.608 µM) | 0.5 µg/mL (≈ 0.608 µM) | 0.25 µg/mL (≈ 0.304 µM) |
| CO[C@H]1/C=C/O[C@@]2(C)Oc3c(C)c(O)c4c(O)c(c(/C=N/N5CCN(C)CC5)c(O)c4c3C2=O)NC(=O)/C(C)=C\C=C\[C@H](C)[C@H](O)[C@@H](C)[C@@H](O)[C@@H](C)[C@H](OC(C)=O)[C@@H]1C [RIFAMPIN] | 8 µg/mL (≈ 9.72 µM) | 0.0156 µg/mL (≈ 0.019 µM) | – | – | > 8 µg/mL | 0.0312 µg/mL (≈ 0.038 µM) | 0.0156 µg/mL (≈ 0.019 µM) | 0.0156 µg/mL (≈ 0.019 µM) | 0.0156 µg/mL (≈ 0.019 µM) |
| CO[C@H]1/C=C/O[C@@]2(C)Oc3c(C)c(O)c4c(O)c(c(C=O)c(O)c4c3C2=O)NC(=O)/C(C)=C\C=C\[C@H](C)[C@H](O)[C@@H](C)[C@@H](O)[C@@H](C)[C@H](OC(C)=O)[C@@H]1C | > 8 µg/mL | 2 µg/mL (≈ 2.76 µM) | – | – | > 8 µg/mL | 2 µg/mL (≈ 2.76 µM) | 4 µg/mL (≈ 5.51 µM) | 2 µg/mL (≈ 2.76 µM) | 2 µg/mL (≈ 2.76 µM) |
